Data as given in ChEMBL document CHEMBL4507257, “Data for DCP probe ABT-100” (2021).

Assays:
[1] = biological target: Aurora kinase A (Homo sapiens) (UniProt O14965); conditions: Compound concentration 1000.0 nM
[2] = tested on: Serine/threonine-protein kinase B-raf (Homo sapiens), P15056 [V600E]; conditions: Compound concentration 1000.0 nM
[3] = biological target: Cyclin-dependent kinase 11A (Homo sapiens) (UniProt Q9UQ88); conditions: Compound concentration 1000.0 nM
[4] = biological target: Cyclin-dependent kinase 9 (Homo sapiens) (UniProt P50750); conditions: Compound concentration 1000.0 nM
[5] = biological target: Serine/threonine-protein kinase Chk1 (Homo sapiens) (UniProt O14757); conditions: Compound concentration 1000.0 nM
Chain of Serine/threonine-protein kinase Chk1 (Homo sapiens) (O14757 whole entry, canonical isoform): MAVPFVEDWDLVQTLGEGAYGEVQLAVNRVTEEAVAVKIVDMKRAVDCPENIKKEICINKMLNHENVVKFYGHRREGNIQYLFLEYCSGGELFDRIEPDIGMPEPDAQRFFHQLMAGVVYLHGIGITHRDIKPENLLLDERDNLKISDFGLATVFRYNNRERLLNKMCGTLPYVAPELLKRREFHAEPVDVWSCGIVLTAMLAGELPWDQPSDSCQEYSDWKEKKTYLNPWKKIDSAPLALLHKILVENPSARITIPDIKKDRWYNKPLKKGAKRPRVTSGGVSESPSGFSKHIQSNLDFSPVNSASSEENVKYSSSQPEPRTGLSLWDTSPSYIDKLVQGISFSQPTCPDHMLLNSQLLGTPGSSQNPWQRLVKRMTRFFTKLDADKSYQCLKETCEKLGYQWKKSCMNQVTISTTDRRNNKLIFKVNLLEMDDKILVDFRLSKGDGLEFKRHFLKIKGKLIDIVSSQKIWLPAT

[6] = biological target: Casein kinase I isoform gamma-1 (Homo sapiens) (UniProt Q9HCP0); conditions: Compound concentration 1000.0 nM
[7] = tested on: Epidermal growth factor receptor (Homo sapiens), P00533 [UNDEFINED MUTATION]; conditions: Compound concentration 1000.0 nM
[8] = biological target: Mitogen-activated protein kinase 3 (Homo sapiens) (UniProt P27361); conditions: Compound concentration 1000.0 nM
[9] = biological target: Mitogen-activated protein kinase 15 (Homo sapiens) (UniProt Q8TD08); conditions: Compound concentration 1000.0 nM
Chain of Mitogen-activated protein kinase 15 (Homo sapiens) (Q8TD08 whole entry): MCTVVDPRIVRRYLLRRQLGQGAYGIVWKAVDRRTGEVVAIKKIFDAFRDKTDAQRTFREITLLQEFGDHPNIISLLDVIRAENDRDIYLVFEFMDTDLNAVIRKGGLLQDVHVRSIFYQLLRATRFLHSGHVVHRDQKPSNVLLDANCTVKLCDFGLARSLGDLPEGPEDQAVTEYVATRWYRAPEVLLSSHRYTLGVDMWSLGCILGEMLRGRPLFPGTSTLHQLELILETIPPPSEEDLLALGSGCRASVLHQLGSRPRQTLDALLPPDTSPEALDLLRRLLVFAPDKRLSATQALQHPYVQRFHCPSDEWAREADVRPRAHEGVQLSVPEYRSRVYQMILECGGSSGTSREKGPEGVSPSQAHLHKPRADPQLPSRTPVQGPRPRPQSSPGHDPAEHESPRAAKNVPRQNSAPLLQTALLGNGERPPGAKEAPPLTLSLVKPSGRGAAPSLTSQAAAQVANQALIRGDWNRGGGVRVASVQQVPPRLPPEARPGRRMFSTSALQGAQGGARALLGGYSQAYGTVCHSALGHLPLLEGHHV

[10] = tested on: eIF-2-alpha kinase GCN2 (Homo sapiens), Q9P2K8 [S808G]; conditions: Compound concentration 1000.0 nM
[11] = biological target: Inhibitor of nuclear factor kappa-B kinase subunit alpha (Homo sapiens) (UniProt O15111); conditions: Compound concentration 1000.0 nM
[12] = biological target: Inhibitor of nuclear factor kappa-B kinase subunit epsilon (Homo sapiens) (UniProt Q14164); conditions: Compound concentration 1000.0 nM
[13] = biological target: Mitogen-activated protein kinase kinase kinase 15 (Homo sapiens) (UniProt Q6ZN16); conditions: Compound concentration 1000.0 nM
[14] = biological target: Serine/threonine-protein kinase 26 (Homo sapiens) (UniProt Q9P289); conditions: Compound concentration 1000.0 nM
[15] = biological target: Serine/threonine-protein kinase Nek3 (Homo sapiens) (UniProt P51956); conditions: Compound concentration 1000.0 nM
Chain of Serine/threonine-protein kinase Nek3 (Homo sapiens) (P51956 whole entry): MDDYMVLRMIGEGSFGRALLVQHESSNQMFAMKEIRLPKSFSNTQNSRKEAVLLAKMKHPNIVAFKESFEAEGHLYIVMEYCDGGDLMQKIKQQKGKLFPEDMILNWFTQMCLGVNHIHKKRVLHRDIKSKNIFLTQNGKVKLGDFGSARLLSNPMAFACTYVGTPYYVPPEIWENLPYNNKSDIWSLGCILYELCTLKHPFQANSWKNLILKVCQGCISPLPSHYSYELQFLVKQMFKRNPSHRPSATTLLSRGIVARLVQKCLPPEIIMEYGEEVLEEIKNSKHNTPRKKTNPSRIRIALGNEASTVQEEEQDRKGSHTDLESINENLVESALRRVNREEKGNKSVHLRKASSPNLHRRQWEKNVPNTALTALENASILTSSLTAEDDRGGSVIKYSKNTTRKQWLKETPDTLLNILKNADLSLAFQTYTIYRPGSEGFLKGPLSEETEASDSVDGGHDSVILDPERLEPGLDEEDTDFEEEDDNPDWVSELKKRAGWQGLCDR

[16] = biological target: Serine/threonine-protein kinase PAK 5 (Homo sapiens) (UniProt Q9P286); conditions: Compound concentration 1000.0 nM
[17] = biological target: Cyclin-dependent kinase 2 homolog (Plasmodium falciparum (isolate 3D7)) (UniProt P61075); conditions: Compound concentration 1000.0 nM
Chain of Cyclin-dependent kinase 2 homolog (Plasmodium falciparum (isolate 3D7)) (P61075 whole entry, canonical isoform): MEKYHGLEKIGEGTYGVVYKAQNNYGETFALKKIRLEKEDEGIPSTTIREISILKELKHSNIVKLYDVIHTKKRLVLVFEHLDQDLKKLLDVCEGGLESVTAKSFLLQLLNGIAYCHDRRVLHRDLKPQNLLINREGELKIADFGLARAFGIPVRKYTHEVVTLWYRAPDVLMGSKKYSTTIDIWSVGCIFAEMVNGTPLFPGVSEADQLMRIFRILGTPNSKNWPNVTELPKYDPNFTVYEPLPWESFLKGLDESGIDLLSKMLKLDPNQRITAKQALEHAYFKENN

[18] = biological target: Phosphorylase b kinase regulatory subunit alpha, liver isoform (Homo sapiens) (UniProt P46019); conditions: Compound concentration 1000.0 nM
[19] = biological target: Phosphatidylinositol 4,5-bisphosphate 3-kinase catalytic subunit beta isoform (Homo sapiens) (UniProt P42338); conditions: Compound concentration 1000.0 nM
[20] = biological target: Phosphatidylinositol 4,5-bisphosphate 3-kinase catalytic subunit gamma isoform (Homo sapiens) (UniProt P48736); conditions: Compound concentration 1000.0 nM
Chain of Phosphatidylinositol 4,5-bisphosphate 3-kinase catalytic subunit gamma isoform (Homo sapiens) (P48736 whole entry, looked up, canonical isoform): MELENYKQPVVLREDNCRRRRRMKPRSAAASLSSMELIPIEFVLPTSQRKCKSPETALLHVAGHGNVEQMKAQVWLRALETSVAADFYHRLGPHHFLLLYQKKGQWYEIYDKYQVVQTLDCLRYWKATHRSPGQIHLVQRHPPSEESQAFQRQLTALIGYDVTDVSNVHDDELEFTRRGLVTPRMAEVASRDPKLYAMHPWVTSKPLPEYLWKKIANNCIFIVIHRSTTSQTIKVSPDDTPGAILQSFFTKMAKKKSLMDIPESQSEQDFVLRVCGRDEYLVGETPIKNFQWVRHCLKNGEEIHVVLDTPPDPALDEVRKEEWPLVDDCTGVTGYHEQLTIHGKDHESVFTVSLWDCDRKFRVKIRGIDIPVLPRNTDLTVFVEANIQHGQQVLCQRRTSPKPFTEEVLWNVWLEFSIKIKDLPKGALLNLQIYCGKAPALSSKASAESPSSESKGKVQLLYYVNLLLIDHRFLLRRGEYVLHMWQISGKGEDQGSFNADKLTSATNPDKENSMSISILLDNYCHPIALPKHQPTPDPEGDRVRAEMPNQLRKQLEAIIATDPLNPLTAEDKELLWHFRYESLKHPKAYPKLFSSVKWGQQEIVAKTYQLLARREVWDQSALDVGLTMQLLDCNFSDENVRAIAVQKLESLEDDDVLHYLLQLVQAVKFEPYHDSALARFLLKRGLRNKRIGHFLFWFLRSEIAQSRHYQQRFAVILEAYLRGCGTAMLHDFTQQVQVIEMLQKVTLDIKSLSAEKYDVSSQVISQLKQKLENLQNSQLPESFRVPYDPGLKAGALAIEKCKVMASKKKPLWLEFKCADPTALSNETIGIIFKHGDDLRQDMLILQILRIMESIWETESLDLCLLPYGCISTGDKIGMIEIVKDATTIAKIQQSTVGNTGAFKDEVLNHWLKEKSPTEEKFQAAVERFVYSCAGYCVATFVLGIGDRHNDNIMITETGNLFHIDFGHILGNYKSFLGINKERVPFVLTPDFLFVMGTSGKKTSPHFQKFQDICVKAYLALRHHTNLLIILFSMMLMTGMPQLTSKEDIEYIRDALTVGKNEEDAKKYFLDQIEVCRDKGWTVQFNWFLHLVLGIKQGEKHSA

[21] = biological target: Serine/threonine-protein kinase PLK3 (Homo sapiens) (UniProt Q9H4B4); conditions: Compound concentration 1000.0 nM
[22] = biological target: cGMP-dependent protein kinase 1 (Homo sapiens) (UniProt Q13976); conditions: Compound concentration 1000.0 nM
[23] = biological target: Ribosomal protein S6 kinase alpha-3 (Homo sapiens) (UniProt P51812); conditions: Compound concentration 1000.0 nM
Chain of Ribosomal protein S6 kinase alpha-3 (Homo sapiens) (P51812 whole entry): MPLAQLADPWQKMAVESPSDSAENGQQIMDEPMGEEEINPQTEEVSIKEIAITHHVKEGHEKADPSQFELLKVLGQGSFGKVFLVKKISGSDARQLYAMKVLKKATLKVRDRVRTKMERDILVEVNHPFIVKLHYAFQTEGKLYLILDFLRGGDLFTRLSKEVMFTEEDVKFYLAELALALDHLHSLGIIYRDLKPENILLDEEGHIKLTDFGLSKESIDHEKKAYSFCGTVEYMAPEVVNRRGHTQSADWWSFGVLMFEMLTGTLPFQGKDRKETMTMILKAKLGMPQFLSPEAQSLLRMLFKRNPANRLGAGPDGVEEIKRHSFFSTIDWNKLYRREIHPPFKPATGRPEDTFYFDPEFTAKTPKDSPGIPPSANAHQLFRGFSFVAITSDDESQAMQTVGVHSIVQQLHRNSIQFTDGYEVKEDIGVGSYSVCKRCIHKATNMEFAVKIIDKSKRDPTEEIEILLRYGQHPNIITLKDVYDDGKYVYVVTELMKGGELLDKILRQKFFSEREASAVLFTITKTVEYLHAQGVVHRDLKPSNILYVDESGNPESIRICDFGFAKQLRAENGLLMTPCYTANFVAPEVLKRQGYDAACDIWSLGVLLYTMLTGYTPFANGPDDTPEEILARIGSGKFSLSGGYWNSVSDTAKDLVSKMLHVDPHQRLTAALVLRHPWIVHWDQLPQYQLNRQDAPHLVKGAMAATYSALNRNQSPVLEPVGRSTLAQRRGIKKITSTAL

[24] = biological target: Non-receptor tyrosine-protein kinase TNK1 (Homo sapiens) (UniProt Q13470); conditions: Compound concentration 1000.0 nM
[25] = biological target: T1, 5-hydroxytryptamine receptor 3A (Homo sapiens) (UniProt P46098); conditions: Compound concentration 10.0 uM
T1 sequence (whole entry): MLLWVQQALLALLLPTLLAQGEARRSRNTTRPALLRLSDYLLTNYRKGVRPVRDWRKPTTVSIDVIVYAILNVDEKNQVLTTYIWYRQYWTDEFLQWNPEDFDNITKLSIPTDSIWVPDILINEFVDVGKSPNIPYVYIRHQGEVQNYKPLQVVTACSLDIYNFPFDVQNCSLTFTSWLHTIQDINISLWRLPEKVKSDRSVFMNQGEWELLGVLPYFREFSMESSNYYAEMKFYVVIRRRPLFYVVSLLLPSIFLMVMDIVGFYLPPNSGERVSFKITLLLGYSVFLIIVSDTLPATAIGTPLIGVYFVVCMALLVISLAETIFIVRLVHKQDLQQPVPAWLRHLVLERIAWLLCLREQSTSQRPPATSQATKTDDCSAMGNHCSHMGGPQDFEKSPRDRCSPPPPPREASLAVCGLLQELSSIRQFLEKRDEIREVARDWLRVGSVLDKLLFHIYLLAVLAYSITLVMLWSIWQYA

[26] = biological target: 5-hydroxytryptamine receptor 5A (Homo sapiens) (UniProt P47898); conditions: Compound concentration 10.0 uM
[27] = biological target: Sodium-dependent serotonin transporter (Homo sapiens) (UniProt P31645); conditions: Compound concentration 10.0 uM
Histamine H1 receptor = Histamine H1 receptor (Homo sapiens, UniProt P35367); conditions: Compound concentration 10.0 uM
[28] = biological target: T2, Muscarinic acetylcholine receptor M4 (Homo sapiens) (UniProt P08173); conditions: Compound concentration 10.0 uM
T2 sequence (whole entry): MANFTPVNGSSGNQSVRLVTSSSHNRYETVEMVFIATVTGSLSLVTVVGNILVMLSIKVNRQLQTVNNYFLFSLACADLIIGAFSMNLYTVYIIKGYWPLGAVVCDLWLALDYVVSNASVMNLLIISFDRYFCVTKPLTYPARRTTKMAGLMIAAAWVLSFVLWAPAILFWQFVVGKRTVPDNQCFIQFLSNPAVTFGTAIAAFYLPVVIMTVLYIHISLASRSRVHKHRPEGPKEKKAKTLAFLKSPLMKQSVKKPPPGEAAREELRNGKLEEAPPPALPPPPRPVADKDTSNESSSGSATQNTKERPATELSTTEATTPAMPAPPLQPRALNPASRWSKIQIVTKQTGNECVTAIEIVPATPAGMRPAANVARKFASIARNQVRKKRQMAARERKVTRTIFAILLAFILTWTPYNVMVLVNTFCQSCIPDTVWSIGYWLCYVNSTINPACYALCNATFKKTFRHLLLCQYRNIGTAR

[29] = biological target: GABA-A receptor; anion channel (Rattus norvegicus) (UniProt O09028+P15431+P18506+P18508+P19969+P20236+P23574+P23576+P28471+P28473+P30191+P62813+P63079+P63138+Q91ZM7+Q9ES14); conditions: Compound concentration 10.0 uM

Chain of Aurora kinase A (Homo sapiens) (O14965 whole entry): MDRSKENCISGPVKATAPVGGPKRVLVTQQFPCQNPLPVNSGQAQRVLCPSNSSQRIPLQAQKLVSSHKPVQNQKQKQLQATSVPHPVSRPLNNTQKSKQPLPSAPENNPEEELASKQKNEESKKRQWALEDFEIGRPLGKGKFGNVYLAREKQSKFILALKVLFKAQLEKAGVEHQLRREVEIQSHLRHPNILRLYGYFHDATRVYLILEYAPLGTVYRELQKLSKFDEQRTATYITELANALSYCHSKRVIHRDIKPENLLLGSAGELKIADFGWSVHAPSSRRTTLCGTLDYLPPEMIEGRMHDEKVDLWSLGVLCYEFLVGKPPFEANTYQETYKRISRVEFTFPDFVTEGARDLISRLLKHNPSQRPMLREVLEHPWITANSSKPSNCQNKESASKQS
Chain of Serine/threonine-protein kinase B-raf (Homo sapiens), P15056 [V600E] (P15056 whole entry V600E): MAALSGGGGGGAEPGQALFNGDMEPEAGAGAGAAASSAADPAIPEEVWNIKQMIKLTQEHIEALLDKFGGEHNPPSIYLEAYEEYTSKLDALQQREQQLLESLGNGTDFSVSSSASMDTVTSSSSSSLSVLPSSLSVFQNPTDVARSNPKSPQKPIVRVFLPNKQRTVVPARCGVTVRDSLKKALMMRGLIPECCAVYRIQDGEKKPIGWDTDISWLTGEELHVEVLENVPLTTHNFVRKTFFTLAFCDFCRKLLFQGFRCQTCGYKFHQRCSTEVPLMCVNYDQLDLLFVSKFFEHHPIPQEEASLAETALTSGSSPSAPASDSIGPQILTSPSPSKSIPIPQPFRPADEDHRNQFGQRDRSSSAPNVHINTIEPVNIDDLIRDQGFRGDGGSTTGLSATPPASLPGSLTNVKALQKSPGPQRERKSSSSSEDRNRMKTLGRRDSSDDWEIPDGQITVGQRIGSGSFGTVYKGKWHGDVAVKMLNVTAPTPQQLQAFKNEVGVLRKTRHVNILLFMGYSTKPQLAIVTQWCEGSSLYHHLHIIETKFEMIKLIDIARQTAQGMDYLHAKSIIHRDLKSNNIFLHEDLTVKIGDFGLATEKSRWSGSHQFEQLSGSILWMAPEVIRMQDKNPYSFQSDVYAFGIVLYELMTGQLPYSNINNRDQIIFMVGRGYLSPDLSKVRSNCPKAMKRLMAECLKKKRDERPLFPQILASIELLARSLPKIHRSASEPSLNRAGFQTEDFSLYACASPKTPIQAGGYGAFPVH

SMILES | residual activity [1] [%] | residual activity [2] [%] | residual activity [3] [%] | residual activity [4] [%] | residual activity [5] [%] | residual activity [6] [%] | residual activity [7] [%] | residual activity [8] [%] | residual activity [9] [%] | residual activity [10] [%] | residual activity [11] [%] | residual activity [12] [%] | residual activity [13] [%] | residual activity [14] [%] | residual activity [15] [%] | residual activity [16] [%] | residual activity [17] [%] | residual activity [18] [%] | residual activity [19] [%] | residual activity [20] [%] | further results
Cn1cncc1[C@](O)(COc1ccc(C#N)cc1-c1ccc(OC(F)(F)F)cc1)c1ccc(C#N)cc1 [ABT-100] | 95 | 82 | 100 | 100 | 97 | 90 | 76 | 90 | 58 | 99 | 86 | 100 | 90 | 100 | 96 | 94 | 77 | 92 | 96 | 100 | residual activity [21]: 89%; residual activity [22]: 91%; residual activity [23]: 100%; residual activity [24]: 56%; inhibition [25]: 17.6%; inhibition [26]: 1.81%; inhibition [27]: 1.25%; inhibition (Histamine H1 receptor): 88.8%; inhibition [28]: 6.8%; inhibition [29]: 2.72%
Cn1cncc1[C@@](O)(COc1ccc(C#N)cc1-c1ccc(OC(F)(F)F)cc1)c1ccc(C#N)cc1 [A-108] | 76 | 100 | 100 | 100 | 100 | 91 | 100 | 83 | 100 | 100 | 100 | 100 | 83 | 99 | 87 | 100 | 69 | 92 | 75 | 69 | residual activity [21]: 88%; residual activity [22]: 94%; residual activity [23]: 98%; residual activity [24]: 88%; inhibition [25]: -0.62%; inhibition [26]: 0.81%; inhibition [27]: -7.91%; inhibition (Histamine H1 receptor): 43.5%; inhibition [28]: -9.7%; inhibition [29]: 6.36%
